Columns and labels:
Test in all cases: relative viability (nuclei count vs DMSO), 5 days (fraction); higher = more cells survive
[1] = compound: CCc1c2c(nc3ccc(OC(=O)N4CCC(N5CCCCC5)CC4)cc13)-c1cc3c(c(=O)n1C2)COC(=O)[C@]3(O)CC [Irinotecan] + Cc1nc(NC(=O)N2CCC[C@H]2C(N)=O)sc1-c1ccnc(C(C)(C)C(F)(F)F)c1 [Alpelisib] (partner 2 µM)
Outline: (§1)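 Relative viability equals treated-well nuclei counts divided by vehicle-well nuclei counts. Counts came from 4× images of lung cancer cell lines grown in 1536-well plates for 5 days after pin-tool dosing on the day after seeding. Dosing used one drug alone or a fixed anchor-drug dose plus five library-drug doses (not always all listed) in √10 steps, and values are medians of duplicate plates.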

[2] = compound: CC[C@@H](C)CNCC(=O)N1CCC2=C([C@@H]1COC3=CC=CC(=C3)C)C=CS2 [RU-SKI 43] + O=C(CCCCCCC(=O)Nc1ccccc1)NO [Vorinostat] (partner 1 µM)
Outline: as §1

[3] = compound: CC[C@@H](C)CNCC(=O)N1CCC2=C([C@@H]1COC3=CC=CC(=C3)C)C=CS2 [RU-SKI 43] + NC(=O)Nc1cc(-c2cccc(F)c2)sc1C(=O)N[C@H]1CCCNC1 [AZD7762] (partner 0.2 µM)
Outline: as §1

[4] = compound: CCc1c2c(nc3ccc(OC(=O)N4CCC(N5CCCCC5)CC4)cc13)-c1cc3c(c(=O)n1C2)COC(=O)[C@]3(O)CC [Irinotecan] + CC(C)C[C@H](NC(=O)[C@H](Cc1ccccc1)NC(=O)c1cnccn1)B(O)O [Bortezomib] (partner 0.002 µM)
Outline: as §1

Cell Line | relative viability ([1]; first compound 0.6325 µM) | relative viability ([1]; first compound 2 µM) | relative viability ([1]; first compound 6.325 µM) | relative viability ([1]; first compound 20 µM) | relative viability ([2]; first compound 0.1 µM) | relative viability ([2]; first compound 0.3162 µM) | relative viability ([2]; first compound 1 µM) | relative viability ([2]; first compound 3.162 µM) | relative viability ([2]; first compound 10 µM) | relative viability ([3]; first compound 0.1 µM) | relative viability ([3]; first compound 0.3162 µM) | relative viability ([3]; first compound 1 µM) | relative viability ([3]; first compound 3.162 µM) | relative viability ([3]; first compound 10 µM) | relative viability ([4]; first compound 0.6325 µM) | relative viability ([4]; first compound 2 µM) | relative viability ([4]; first compound 6.325 µM) | relative viability ([4]; first compound 20 µM)
NCI-H1437 | 0.75 | 0.67 | 0.262 | 0.147 | 0.839 | 0.958 | 0.84 | 0.798 | 0.671 | 1.16 | 1.28 | 1.16 | 1.12 | 1.08 | 0.399 | 0.355 | 0.285 | 0.171
NCI-H1651 | 0.862 | 0.705 | 0.246 | 0.205 | 0.617 | 0.573 | 0.676 | 0.559 | 0.548 | 0.506 | 0.467 | 0.549 | 0.535 | 0.456 |  | 0.849 | 0.553 | 0.227
NCI-H1666 | 0.697 | 0.552 | 0.486 | 0.337 | 0.953 | 1.08 | 1.13 | 0.997 | 0.799 | 0.884 | 0.754 | 0.956 | 0.774 | 0.78 | 0.608 | 0.419 | 0.414 | 0.214
NCI-H1734 | 0.625 | 0.331 | 0.143 | 0.233 | 0.821 | 0.833 | 0.81 | 0.852 | 0.701 | 0.588 | 0.604 | 0.573 | 0.61 | 0.579 | 0.797 | 0.674 | 0.207 | 0.174
NCI-H1755 | 0.822 | 0.434 | 0.292 | 0.363 | 0.746 | 0.862 | 0.848 | 0.809 | 0.859 | 0.42 | 0.504 | 0.46 | 0.411 | 0.359 | 0.9 | 0.935 | 0.355 | 0.327
NCI-H1915 | 0.3 | 0.217 | 0.164 | 0.155 | 0.563 | 0.602 | 0.639 | 0.54 | 0.549 | 0.699 | 0.833 | 0.702 | 0.672 | 0.688 | 0.537 | 0.445 | 0.24 | 0.148
NCI-H1975 | 0.654 | 0.68 | 0.324 | 0.195 | 0.736 | 0.781 | 0.749 | 0.723 | 0.618 | 0.763 | 0.748 | 0.97 | 0.671 | 0.803 | 0.294 | 0.31 | 0.278 | 0.129
NCI-H1993 | 0.617 | 0.643 | 0.63 | 0.68 | 0.717 | 0.969 | 0.769 | 1.08 | 0.659 | 0.677 | 0.775 | 0.807 | 0.712 | 0.688 | 1.1 | 0.968 | 0.613 | 0.399
NCI-H2085 | 0.888 | 0.75 | 0.458 | 0.482 | 0.705 | 0.659 | 0.808 | 0.793 | 0.726 | 1.02 | 0.856 | 0.948 | 1.08 | 1.02 | 0.847 | 1.01 | 0.535 | 0.494
NCI-H2087 | 0.437 | 0.22 | 0.215 | 0.211 | 0.818 | 1.02 | 0.985 | 0.789 | 0.57 | 1.33 | 1.65 | 1.3 | 1.36 | 1.31 | 0.442 | 0.476 | 0.18 | 0.248
NCI-H2126 |  | 0.384 | 0.289 | 0.312 | 0.793 | 0.864 | 0.819 | 0.906 | 0.781 | 1.05 | 1.17 | 1.09 | 1.05 | 1.04 |  | 1.08 | 0.632 | 0.34
NCI-H2347 | 0.858 | 0.763 | 0.482 | 0.464 | 0.511 | 0.621 | 0.674 | 0.595 | 0.566 | 0.732 | 0.74 | 0.812 | 0.614 | 0.642 | 0.512 | 0.918 | 0.493 | 0.555
NCI-H2405 |  | 0.678 | 0.291 | 0.0889 | 1.1 | 1.11 | 1.18 | 1.02 | 1 | 0.801 | 0.83 | 0.876 | 0.84 | 0.452 | 0.573 | 0.931 | 0.662 | 0.299
NCI-H3122 | 0.824 | 0.301 | 0.244 | 0.255 | 1.06 | 1.36 | 1.04 | 0.467 | 1.06 | 0.957 | 1.27 | 1.01 | 1.15 | 0.95 | 1.05 | 0.824 | 0.252 | 0.259
PC-3 [JPC-3] | 0.814 | 0.413 | 0.319 | 0.305 | 0.947 | 0.727 | 0.982 | 0.651 | 0.876 | 0.885 | 0.671 | 0.828 | 0.834 | 0.336 | 0.703 | 0.826 | 0.579 | 0.296
PC-14 | 0.925 | 0.9 | 0.465 | 0.184 | 0.661 | 0.69 | 0.739 | 0.86 | 0.585 | 0.392 | 0.377 | 0.441 | 0.32 | 0.379 | 0.831 | 0.802 | 0.178 | 0.158
RERF-LC-KJ |  | 0.835 | 0.501 | 0.454 | 0.695 | 0.699 | 0.654 | 0.702 | 0.546 | 0.97 | 1.01 | 1.21 | 1.17 | 1.04 |  | 1.16 | 0.563 | 0.468

— the supplement of paper PMC10307832
